Data published in the Kinase Knowledgebase extract (Sharma et al. 2016).

Assays:
Assay in all cases: Enzyme Assay
PIK3CA (human) = PIK3CA (human) (UniProt P42336)
PIK3CB (Human) = PIK3CB (Human) (UniProt P42338)
PIK3CD (Human) = PIK3CD (Human) (UniProt O00329)
PIK3CG (human) = PIK3CG (human) (UniProt P48736)
Sequence of PIK3CG (human) (P48736 whole entry, looked up): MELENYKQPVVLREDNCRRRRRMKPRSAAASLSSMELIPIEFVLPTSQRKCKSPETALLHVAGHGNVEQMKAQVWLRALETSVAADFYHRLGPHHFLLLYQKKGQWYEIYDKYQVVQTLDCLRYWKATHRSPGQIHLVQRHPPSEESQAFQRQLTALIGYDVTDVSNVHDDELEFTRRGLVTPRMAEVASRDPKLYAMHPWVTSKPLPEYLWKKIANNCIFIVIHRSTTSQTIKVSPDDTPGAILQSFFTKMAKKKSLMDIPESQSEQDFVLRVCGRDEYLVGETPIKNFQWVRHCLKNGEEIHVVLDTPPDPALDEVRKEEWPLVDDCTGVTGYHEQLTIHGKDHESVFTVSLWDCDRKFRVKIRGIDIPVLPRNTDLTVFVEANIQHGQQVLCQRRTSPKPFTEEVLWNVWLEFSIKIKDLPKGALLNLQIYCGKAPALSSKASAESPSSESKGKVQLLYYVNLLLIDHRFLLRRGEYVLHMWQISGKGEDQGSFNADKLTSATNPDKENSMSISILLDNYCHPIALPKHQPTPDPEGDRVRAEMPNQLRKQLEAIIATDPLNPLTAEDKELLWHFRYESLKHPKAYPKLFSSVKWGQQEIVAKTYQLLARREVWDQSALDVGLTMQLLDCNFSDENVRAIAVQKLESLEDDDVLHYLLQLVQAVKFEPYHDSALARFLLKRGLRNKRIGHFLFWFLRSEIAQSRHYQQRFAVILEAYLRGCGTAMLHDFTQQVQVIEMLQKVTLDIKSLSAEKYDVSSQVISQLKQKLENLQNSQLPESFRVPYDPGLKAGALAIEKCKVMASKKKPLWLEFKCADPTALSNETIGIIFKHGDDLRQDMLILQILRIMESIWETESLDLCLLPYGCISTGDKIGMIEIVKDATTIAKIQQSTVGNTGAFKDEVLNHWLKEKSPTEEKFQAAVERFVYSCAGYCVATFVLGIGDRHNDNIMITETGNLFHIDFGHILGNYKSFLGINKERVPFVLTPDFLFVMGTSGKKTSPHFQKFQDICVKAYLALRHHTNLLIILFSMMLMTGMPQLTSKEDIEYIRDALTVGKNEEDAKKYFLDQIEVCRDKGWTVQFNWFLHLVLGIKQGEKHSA

Sequence of PIK3CA (human) (P42336 whole entry, looked up): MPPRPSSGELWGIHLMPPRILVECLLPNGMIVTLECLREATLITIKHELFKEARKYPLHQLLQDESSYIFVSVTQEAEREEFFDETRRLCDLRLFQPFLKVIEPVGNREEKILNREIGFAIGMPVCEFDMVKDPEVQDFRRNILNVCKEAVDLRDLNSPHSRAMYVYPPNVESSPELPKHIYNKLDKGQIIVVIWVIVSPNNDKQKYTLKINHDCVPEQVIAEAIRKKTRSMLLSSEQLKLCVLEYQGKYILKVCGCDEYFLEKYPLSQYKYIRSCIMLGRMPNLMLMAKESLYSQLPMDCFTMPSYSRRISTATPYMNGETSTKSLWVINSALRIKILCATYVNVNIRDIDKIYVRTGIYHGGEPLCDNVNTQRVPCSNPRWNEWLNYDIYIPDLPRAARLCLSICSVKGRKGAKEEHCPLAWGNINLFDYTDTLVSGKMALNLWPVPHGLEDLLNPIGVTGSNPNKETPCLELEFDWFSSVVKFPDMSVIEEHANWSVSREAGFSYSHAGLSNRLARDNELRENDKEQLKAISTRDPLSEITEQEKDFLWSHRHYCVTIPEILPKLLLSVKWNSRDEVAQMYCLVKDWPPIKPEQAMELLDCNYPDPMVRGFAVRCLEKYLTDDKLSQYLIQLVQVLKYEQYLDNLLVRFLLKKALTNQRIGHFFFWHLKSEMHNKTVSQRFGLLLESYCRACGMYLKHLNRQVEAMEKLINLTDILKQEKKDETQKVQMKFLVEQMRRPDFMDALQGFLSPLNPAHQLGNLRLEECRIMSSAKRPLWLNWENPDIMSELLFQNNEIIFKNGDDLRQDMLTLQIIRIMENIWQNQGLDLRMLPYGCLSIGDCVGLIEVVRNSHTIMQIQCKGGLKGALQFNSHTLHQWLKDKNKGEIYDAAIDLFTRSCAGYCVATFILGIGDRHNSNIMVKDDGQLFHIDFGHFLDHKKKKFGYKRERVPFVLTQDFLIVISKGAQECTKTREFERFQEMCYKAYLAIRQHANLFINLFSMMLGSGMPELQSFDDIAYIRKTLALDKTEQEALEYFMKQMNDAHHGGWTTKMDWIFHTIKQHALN
Sequence of PIK3CB (Human) (P42338 whole entry, looked up): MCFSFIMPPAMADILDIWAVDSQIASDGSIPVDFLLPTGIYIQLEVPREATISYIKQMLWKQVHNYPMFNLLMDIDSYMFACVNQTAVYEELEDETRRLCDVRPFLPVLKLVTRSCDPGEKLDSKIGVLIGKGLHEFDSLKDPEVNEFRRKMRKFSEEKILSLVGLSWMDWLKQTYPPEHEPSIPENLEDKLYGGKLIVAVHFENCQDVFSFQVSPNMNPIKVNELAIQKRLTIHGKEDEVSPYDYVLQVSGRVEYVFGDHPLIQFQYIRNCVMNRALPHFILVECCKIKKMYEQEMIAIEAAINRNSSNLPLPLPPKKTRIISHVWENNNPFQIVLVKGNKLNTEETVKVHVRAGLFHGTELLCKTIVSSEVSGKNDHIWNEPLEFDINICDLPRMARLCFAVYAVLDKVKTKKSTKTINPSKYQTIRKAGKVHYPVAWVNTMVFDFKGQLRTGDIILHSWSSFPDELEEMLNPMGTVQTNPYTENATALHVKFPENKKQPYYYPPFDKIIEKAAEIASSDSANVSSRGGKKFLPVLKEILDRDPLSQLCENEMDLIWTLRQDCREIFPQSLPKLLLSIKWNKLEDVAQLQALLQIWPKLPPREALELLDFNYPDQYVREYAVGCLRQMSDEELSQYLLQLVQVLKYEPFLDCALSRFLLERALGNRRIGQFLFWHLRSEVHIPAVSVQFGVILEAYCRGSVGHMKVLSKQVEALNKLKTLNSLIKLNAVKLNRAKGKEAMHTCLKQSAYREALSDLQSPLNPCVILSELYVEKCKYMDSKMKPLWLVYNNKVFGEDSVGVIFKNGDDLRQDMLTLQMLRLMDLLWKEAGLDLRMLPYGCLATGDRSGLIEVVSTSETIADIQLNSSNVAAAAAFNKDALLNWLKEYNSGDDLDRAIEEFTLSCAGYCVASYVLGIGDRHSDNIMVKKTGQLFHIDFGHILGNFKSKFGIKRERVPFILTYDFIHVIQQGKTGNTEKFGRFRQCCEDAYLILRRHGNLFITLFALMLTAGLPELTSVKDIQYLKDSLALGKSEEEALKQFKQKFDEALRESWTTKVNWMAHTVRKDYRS
Sequence of PIK3CD (Human) (O00329 whole entry, looked up): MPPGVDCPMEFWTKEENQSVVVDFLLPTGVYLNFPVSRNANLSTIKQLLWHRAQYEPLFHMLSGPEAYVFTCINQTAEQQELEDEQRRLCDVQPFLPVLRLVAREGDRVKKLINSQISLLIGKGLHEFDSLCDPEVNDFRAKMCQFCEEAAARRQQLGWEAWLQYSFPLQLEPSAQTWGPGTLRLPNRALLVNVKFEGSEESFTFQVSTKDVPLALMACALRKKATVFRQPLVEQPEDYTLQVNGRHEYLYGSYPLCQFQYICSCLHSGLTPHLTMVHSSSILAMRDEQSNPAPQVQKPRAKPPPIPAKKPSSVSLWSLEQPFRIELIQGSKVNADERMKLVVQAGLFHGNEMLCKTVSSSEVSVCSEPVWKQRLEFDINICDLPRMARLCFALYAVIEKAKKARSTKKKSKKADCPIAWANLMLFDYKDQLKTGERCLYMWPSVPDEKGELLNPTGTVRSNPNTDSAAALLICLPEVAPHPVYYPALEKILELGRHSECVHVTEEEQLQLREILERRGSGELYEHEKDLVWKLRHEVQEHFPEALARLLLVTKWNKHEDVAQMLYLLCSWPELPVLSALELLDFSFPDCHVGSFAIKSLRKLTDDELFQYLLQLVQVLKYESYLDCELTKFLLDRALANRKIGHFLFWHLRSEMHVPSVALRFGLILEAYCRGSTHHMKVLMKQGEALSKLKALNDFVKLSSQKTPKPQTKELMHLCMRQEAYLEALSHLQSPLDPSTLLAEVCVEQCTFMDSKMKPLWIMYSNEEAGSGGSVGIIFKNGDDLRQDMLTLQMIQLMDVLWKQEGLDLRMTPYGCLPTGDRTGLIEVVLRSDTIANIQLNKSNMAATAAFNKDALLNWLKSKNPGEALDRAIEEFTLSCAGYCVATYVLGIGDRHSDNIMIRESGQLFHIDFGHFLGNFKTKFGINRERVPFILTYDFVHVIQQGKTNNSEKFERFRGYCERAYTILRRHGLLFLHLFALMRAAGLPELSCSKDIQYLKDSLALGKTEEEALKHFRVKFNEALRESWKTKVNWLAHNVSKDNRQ

SMILES | IC50 (PIK3CA (human)) | IC50 (PIK3CB (Human)) | IC50 (PIK3CD (Human)) | IC50 (PIK3CG (human)) | Ki (PIK3CD (Human))
Cc1ccc(-c2cc(-c3cccc4[nH]ccc34)cc3[nH]ncc23)o1 | 5.01 µM | 2.51 µM | 0.126 µM | 2 µM | 
Cc1nc(C(=O)Nc2cc(-c3cccc4c3ccn4C)cc3[nH]ncc23)cs1 | > 25.1 µM | > 25.1 µM | 5.01 µM | > 25.1 µM | 
O=C(Nc1cc(-c2cccc3[nH]ccc23)cc2[nH]ncc12)c1csc(CN2CCOCC2)n1 | 10 µM | 7.94 µM | 0.00631 µM | 3.16 µM | 
Cc1nc(C(=O)Nc2cc(-c3cccc4[nH]ccc34)cc3[nH]ncc23)cs1 | > 25.1 µM | 10 µM | 0.0501 µM | 3.98 µM | 
CC(C)N1CCN(Cc2cnc(-c3cc(-c4cccc5[nH]ccc45)cc4[nH]ncc34)o2)CC1 | 5.01 µM | 1.58 µM | > 25.1 µM | 6.31 µM | 0.000126 µM
Cc1cnc(-c2cc(-c3cccc4[nH]ccc34)cc3[nH]ncc23)s1 | 10 µM | 6.31 µM | 0.251 µM | 3.98 µM | 
Cc1nc(C(=O)Nc2cc(-c3cncc(NS(C)(=O)=O)c3)cc3[nH]ncc23)cs1 | 7.94 µM | > 25.1 µM | 0.0794 µM | 0.316 µM | 
Cc1nnc(-c2cc(-c3cccc4[nH]ccc34)cc3[nH]ncc23)o1 | > 25.1 µM | 3.16 µM | 0.1 µM | 1.26 µM | 
Cc1nc(C(=O)Nc2cc(-c3cnc(Cl)c(N(C)S(=O)(=O)c4ccccc4)c3)cc3[nH]ncc23)cs1 | > 25.1 µM | > 25.1 µM | 0.501 µM | > 25.1 µM | 
O=C(Nc1cc(-c2cccc3[nH]ccc23)cc2[nH]ncc12)c1csc(CN2CCN3CCC[C@H]3C2)n1 | 7.94 µM | 7.94 µM | 0.00398 µM | 10 µM | 
COc1ncc(-c2cc(NC(=O)c3csc(CN4C[C@@H](C)O[C@@H](C)C4)n3)c3cn[nH]c3c2)cc1NS(C)(=O)=O | 0.398 µM | 2.51 µM | > 25.1 µM | 0.316 µM | 0.0001 µM
Cc1coc(-c2cc(-c3cccc4[nH]ccc34)cc3[nH]ncc23)n1 | 12.6 µM | 0.794 µM | 0.126 µM | 0.631 µM | 
Cc1nc(C(=O)Nc2cc(-c3cc(F)cc4[nH]ccc34)cc3[nH]ncc23)cs1 | 12.6 µM | 3.16 µM | 0.0158 µM | 3.16 µM | 
O=C(Nc1cc(-c2cccc3[nH]ccc23)cc2[nH]ncc12)c1cscn1 | > 25.1 µM | 12.6 µM | 0.158 µM | 10 µM | 
Cc1cccc(C(=O)Nc2cc(-c3cccc4[nH]ccc34)cc3[nH]ncc23)n1 | 20 µM | 3.16 µM | 0.0158 µM | 0.794 µM | 
Cn1ccc(C(=O)Nc2cc(-c3cccc4[nH]ccc34)cc3[nH]ncc23)n1 | > 25.1 µM | 12.6 µM | 0.1 µM | 10 µM | 
Cc1csc(-c2cc(-c3cccc4[nH]ccc34)cc3[nH]ncc23)n1 | > 25.1 µM | 6.31 µM | 0.398 µM | 2.51 µM | 
COc1ncc(-c2cc(-c3ncc(CN4C[C@@H](C)O[C@@H](C)C4)o3)c3cn[nH]c3c2)cc1NS(C)(=O)=O | 0.501 µM | 0.631 µM |  | 0.501 µM | 
Cc1cc2c(-c3cc(NC(=O)c4csc(C)n4)c4cn[nH]c4c3)cccc2[nH]1 | 7.94 µM | 3.16 µM | 0.02 µM | 3.16 µM | 
C[C@@H]1CN(Cc2coc(-c3cc(-c4cccc5[nH]ccc45)cc4[nH]ncc34)n2)C[C@H](C)O1 | 12.6 µM | 1.26 µM | 0.00501 µM | 2.51 µM | 
CN(C(=O)c1ccccn1)c1cc(-c2cccc3[nH]ccc23)cc2[nH]ncc12 | > 25.1 µM | > 25.1 µM | 15.8 µM | > 25.1 µM | 
O=C(Nc1cc(-c2cccc3[nH]ccc23)cc2[nH]ncc12)c1ccccn1 | 10 µM | 6.31 µM | 0.1 µM | 6.31 µM | 0.0501 µM
CC(C)N1CCN(Cc2nc(C(=O)Nc3cc(-c4cccc5[nH]ccc45)cc4[nH]ncc34)cs2)CC1 | 1.26 µM | 1.58 µM | 0.00316 µM | 3.98 µM | 
C[C@@H]1CN(Cc2nc(C(=O)Nc3cc(-c4cccc5[nH]ccc45)cc4[nH]ncc34)cs2)C[C@H](C)O1 | 12.6 µM | 5.01 µM | 0.002 µM | 2.51 µM | 
c1cc(-c2cc(-c3ncco3)c3cn[nH]c3c2)c2cc[nH]c2c1 | 10 µM | 1.26 µM | 0.0794 µM | 1.26 µM | 
O=C(Nc1cc(-c2cccc3[nH]ccc23)cc2[nH]ncc12)c1csc(-c2ccccc2)n1 | > 25.1 µM | 12.6 µM | 0.501 µM | 7.94 µM | 

SMILES | IC50 (PIK3CA (human)) | IC50 (PIK3CB (Human)) | IC50 (PIK3CD (Human)) | IC50 (PIK3CG (human)) | Ki (PIK3CD (Human))
CC(C)n1nccc1C(=O)Nc1cc(-c2cccc3[nH]ccc23)cc2[nH]ncc12 | > 25.1 µM | > 25.1 µM | 1 µM | 20 µM | 
Cc1nc(C(=O)Nc2cc(-c3cnc(Cl)c(CS(=O)(=O)c4ccccc4)c3)cc3[nH]ncc23)cs1 | 25.1 µM | 20 µM | 1 µM | > 25.1 µM | 
C[C@@H]1CN(Cc2nnc(-c3cc(-c4cccc5[nH]ccc45)cc4[nH]ncc34)o2)C[C@H](C)O1 | > 25.1 µM | 1 µM | 0.00316 µM | 2 µM | 
Cc1ccc(C(=O)Nc2cc(-c3cccc4[nH]ccc34)cc3[nH]ncc23)nc1 | > 25.1 µM | 15.8 µM | 0.126 µM | 1.26 µM | 
O=C(Nc1cc(-c2cccc3[nH]ccc23)cc2[nH]ncc12)c1ccccc1 | > 25.1 µM | 20 µM | 1.26 µM | 12.6 µM | 
Cc1cnc(-c2cc(-c3cccc4[nH]ccc34)cc3[nH]ncc23)o1 | 10 µM | 1.26 µM | 0.0631 µM | 0.398 µM | 
O=C(Nc1cc(-c2cccc3[nH]ccc23)cc2[nH]ncc12)c1csc(CN2CCCCC2)n1 | 20 µM | 15.8 µM | 0.01 µM | 15.8 µM | 
Cc1ccc(-c2cc(-c3cccc4[nH]ccc34)cc3[nH]ncc23)s1 | 7.94 µM | 6.31 µM | 0.794 µM | 3.98 µM | 
O=C(Nc1cc(-c2cccc3[nH]ccc23)cc2[nH]ncc12)c1csc(Cc2ccccc2)n1 | > 25.1 µM | > 25.1 µM | 0.0794 µM | 12.6 µM | 
O=C(Nc1cc(-c2cccc3[nH]ccc23)cc2[nH]ncc12)c1cccc(CN2CCCCC2)n1 | > 25.1 µM | 12.6 µM | 0.0126 µM | > 25.1 µM | 
CC(C)N1CCN(Cc2coc(-c3cc(-c4cccc5[nH]ccc45)cc4[nH]ncc34)n2)CC1 | 12.6 µM | 3.98 µM | 0.00398 µM | 15.8 µM | 
Cc1nc(C(=O)Nc2cc(-c3ccnc4[nH]ccc34)cc3[nH]ncc23)cs1 | 7.94 µM | 5.01 µM | 0.00794 µM | 0.251 µM | 
Cc1nc(C(=O)Nc2cc(-c3cnc(Cl)c(NS(=O)(=O)c4ccccc4)c3)cc3[nH]ncc23)cs1 | 0.2 µM | 0.501 µM | 0.00126 µM | 0.0251 µM | 
C[C@@H]1CN(Cc2cnc(-c3cc(-c4cccc5[nH]ccc45)cc4[nH]ncc34)o2)C[C@H](C)O1 | 15.8 µM | 1 µM | 0.00251 µM | 2 µM | 
Cc1nc(C(=O)Nc2cc(-c3cnc(C)c(NS(C)(=O)=O)c3)cc3[nH]ncc23)cs1 | 3.16 µM | 3.98 µM | 0.0316 µM | 0.631 µM | 
CC(C)N1CCN(Cc2nnc(-c3cc(-c4cccc5[nH]ccc45)cc4[nH]ncc34)o2)CC1 | 12.6 µM | 3.16 µM | 0.00126 µM | 10 µM | 
Cc1nc(C(=O)Nc2cc(-c3cccc4[nH]cnc34)cc3[nH]ncc23)cs1 | > 25.1 µM | > 25.1 µM | 0.316 µM | > 25.1 µM | 
Cc1nc(C(=O)Nc2cc(-c3ccc(Cl)c(NS(C)(=O)=O)c3)cc3[nH]ncc23)cs1 | 15.8 µM | 15.8 µM | 0.631 µM | 3.98 µM | 
Cc1nc(C(=O)Nc2cc(-c3cccc4[nH]ncc34)cc3[nH]ncc23)cs1 | > 25.1 µM | > 25.1 µM | 0.316 µM | 6.31 µM | 
Cn1nccc1C(=O)Nc1cc(-c2cccc3[nH]ccc23)cc2[nH]ncc12 | > 25.1 µM | 20 µM | 0.794 µM | 20 µM | 
COc1cc(-c2cc(NC(=O)c3csc(C)n3)c3cn[nH]c3c2)c2cc[nH]c2c1 | 6.31 µM | 2.51 µM | 0.0126 µM | 7.94 µM | 
Cc1nc(C(=O)Nc2cc(-c3cccc(O)c3)cc3[nH]ncc23)cs1 | 15.8 µM | 7.94 µM | 0.316 µM | 12.6 µM | 
COc1ncc(-c2cc(NC(=O)c3csc(C)n3)c3cn[nH]c3c2)cc1NS(C)(=O)=O | 0.794 µM | 0.794 µM | 0.0126 µM | 0.2 µM | 
Cc1nc(C(=O)Nc2cc(-c3cnc(Cl)c(NS(C)(=O)=O)c3)cc3[nH]ncc23)cs1 | 0.316 µM | 1 µM | 0.002 µM | 0.0501 µM | 
Cc1nc(C(=O)Nc2cc(-c3cc(Cl)cc4[nH]ccc34)cc3[nH]ncc23)cs1 | 5.01 µM | 1 µM | 0.00794 µM | 3.98 µM | 
